# Assay results published in patent US5532265A, “Treatment of central nervous system inflammatory disease with matrix metalloprotease inhibitors” (The Board of Trustees of the Leland Stanford Junior …, priority 1994, dated 1996).
# Legend:
# [1] = test system: gelatinase A and B in the CSF from animals with EAE; test: In vitro inhibition of gelatinase activity in CSF (SDS/PAGE zymography); format: biochemical, mice
# Experimental: In vitro inhibition of gelatinase activity. Gelatinase activity in a pooled CSF sample from animals with clinical signs of EAE (grade 2-3 for 4-5 d) was determined by SDS/PAGE zymography. CSF was applied without prior denaturation to a single-well 7.5% (wt/vol) polyacrylamide gel containing 0.1% (wt/vol) SDS to which 0.1% (wt/vol) tissue culture grade gelatin (Sigma Chemical Co., St. Louis, Mo.) was added and copolymerized. […] The gel (7 cm×10 cm×0.75 mm) was run for approximately 2 h at 20 mA. After electrophoresis the gel was washed (washing buffer: 50 mM Tris-HCL, 10 mM CaCl2, 0.02% (wt/vol) NaN3, 2.5% (vol/vol) Triton X-100, pH 7.5) to remove the SDS and sliced into strips. The resulting strips were incubated separately at 37° C. during 24 h (same buffer as for the washing, containing only 1% [vol/vol] Triton X-100) for development of the enzyme activity, stained with Coomassie brilliant blue R-250 and destained in methanol/acetic acid. Gelatinase activity was detected as unstained bands on a blue background. To assess the effect of protease inhibitors on the gelatinase activity present in the CSF, metalloprotease inhibitors (dissolved in DMSO) were added to the incubation buffer. GM 6001 was used at final concentrations from 0.1 to 33 μM; 1,10-phenanthroline (Sigma Chemical Co.) was used as a positive control at 2.5 mM, and the noninhibitor lane was incubated in 0.5% (vol/vol) DMSO.
# gelatinase B = details: cited from earlier work
# EAE in SJL/J mice [2] = test: Histopathology of brain and spinal cord (inflammation, demyelination); format: in vivo; details: for Demyelination Brain + SC / Inflammation Brain / Inflammation Spinal Cord: 1 × 1.33 mg/d i.p.; for Demyelination Brain + SC: demyelination score; for Inflammation Brain / Inflammation Spinal Cord: total inflammatory score
# Experimental: Sections were stained with hematoxylin and eosin, Kluver-Barrera and Giemsa stain. Histopathology was assessed as follows. Individual inflammatory lesions were scored as 1=perivascular inflammatory cuff≤three cells thick, 2=>three cells thick. 3=parenchymal infiltrate. The total inflammatory score was then calculated by adding all the scores for individual lesions from all the sections for a given sample. The demyelination score was calculated the same way as inflammatory score, with 1=demyelinated rim around infiltrate, 2=demyelination extending into noninfiltrated tissue.
# EAE in SJL/J mice [3] = test: Clinical scoring of EAE; format: in vivo; parameters: key to Change in average cumulative score During treatment / Change in average cumulative score After treatment: change in cumulative EAE grade; 0 = no signs, 5 = death
# Experimental: EAE induction, Female SJL/J mice (Jackson Laboratory, Bar Harbor, Me.) were used at 5-7 week of age. […] PLP peptide 139-151 was prepared by continuous flow solid phase synthesis according to the sequence (SEQ ID NO 1 ) HCLGKWLGHPDKF by the Protein and Nucleic Acid Facility, Beckman Center, Stanford, Calif. Peptide purity was examined by HPLC analysis and peptide identity was confirmed by amino-acid composition analysis.
# EAE was scored clinically as follows: no neurological signs=grade 0, weak tail=grade 1, wobbly walk or limb paresis=grade 2, limb paralysis=grade 3, inability to move=grade 4, death=grade 5. Easy access to food and water was provided and animals with grade 3 or 4 received daily parenteral fluid.
# […] The same volume of vehicle was used as a control treatment. Animals were treated daily either from the day of disease induction for 20 d or from the onset of clinical signs for 10 d (randomized for the different treatment groups).
# EAE in SJL/J mice [4] = test: Blood-brain barrier permeability (Evans blue); format: in vivo
# Experimental: Mice were injected intravenously with 1% (wt/vol) Evans blue (Fisher Scientific Co., Fair Lawn, N.J.) in PBS at a dosage of 4 μl/g body weight. After 1 h the animals were euthanized by CO2 inhalation and perfused with PBS via the left ventricle. Brain and spinal cord were dissected and cut longitudinally. Half of the CNS was used for histopathological evaluation. The other half was weighed and tissue samples were then extracted for 3 d in formamide (5 μl/mg tissue) and the extracts centrifuged for 5 min at 500 g. Evans blue concentration in the extracts was determined by measuring the absorbance at 650 nm. The blood-brain barrier permeability index was calculated by dividing the value for each sample by the corresponding (brain or spinal cord) mean value of four normal noninduced animals.
# [5] = In vivo inhibitor kinetics (GM 6001 concentration in CSF); parameters: species or system mice; details: for concentration at 3 h: for at least 3 h
# Experimental: In vivo inhibitor kinetics. Normal noninduced animals or animals with clinical signs of EAE for 2 d were given a single intraperitoneal injection of 4 mg GM 6001 and euthanized by CO2 inhalation after various time intervals. CSF was taken by suboccipital puncture. Pooled CSF from five animals per time point was frozen immediately at -70° C. GM 6001 concentrations were determined by reversed-phase HPLC by Bay Bioanalytical Laboratories, Richmond, Calif. was diluted into 20% acetonitrile in water and chromatographed on a C-18 reversed-phase column with fluorescence detection. Linearity was determined by spiking blank CSF with increasing amounts of GM 6001. The amount of GM 6001 in CSF samples was calculated based on recovery of GM 6001 and the internal standard in spiked samples. The lower limit for quantification of GM 6001 in the CSF samples was 60 ng/rnl.
# [6] = 3 days of treatment from onset of clinical signs
# [7] = 10 days of treatment from onset of clinical signs
# [8] = Experiment 1, from disease induction for 20 d, 2X/d 2.00 mg i.p.
# [9] = Experiment 1, from onset of clinical signs for 10 d, 2X/d 2.00 mg i.p.
# [10] = Experiment 2, from disease induction for 20 d, 1X/d 0.13 mg i.p.
# [11] = Experiment 2, from disease induction for 20 d, 1X/d 0.40 mg i.p.
# [12] = Experiment 2, from disease induction for 20 d, 1X/d 1.33 mg i.p.
# [13] = Experiment 2, from disease induction for 20 d, 1X/d 4.00 mg i.p.
# [14] = Experiment 2, from onset of clinical signs for 10 d, 1X/d 0.13 mg i.p.
# [15] = Experiment 2, from onset of clinical signs for 10 d, 1X/d 0.40 mg i.p.
# [16] = Experiment 2, from onset of clinical signs for 10 d, 1X/d 1.33 mg i.p.
# [17] = Experiment 2, from onset of clinical signs for 10 d, 1X/d 4.00 mg i.p.
# [18] = animals with EAE, single intraperitoneal dose of 4 mg
smiles,measurement,setting,value
"CNC(=O)[C@H](Cc1c[nH]c2ccccc12)NC(=O)[C@@H](CC(=O)NO)CC(C)C [GM 6001, N-[2(R)-2-(hydroxamidocarbonylmethyl)-4-methylpentanoyl]-L-tryptophan methylamide]",inhibition of gelatinase A compared with gelatinase B in CSF,[1]; CSF from animals with EAE,equally well inhibited
same,inhibition of gelatinase activity in CSF,"[1]; GM 6001 at 1 μM to 33 μM, pooled CSF from animals with EAE, zymography",completely inhibited all gelatinase activity
same,inhibition of gelatinase activity in CSF,"[1]; GM 6001 at 0.1 and 0.33 μM, pooled CSF from animals with EAE, zymography",partial inhibition
same,Ki,gelatinase B,0.2 nM
same,Demyelination Brain + SC,EAE in SJL/J mice [2]; [6],3.7 ± 0.88
same,Inflammation Brain,EAE in SJL/J mice [2]; [6],31.7 ± 5.17
same,Inflammation Spinal Cord,EAE in SJL/J mice [2]; [6],14.7 ± 1.67
same,Demyelination Brain + SC,EAE in SJL/J mice [2]; [7],2.3 ± 0.63
same,Inflammation Brain,EAE in SJL/J mice [2]; [7],21.0 ± 3.14
same,Inflammation Spinal Cord,EAE in SJL/J mice [2]; [7],15.0 ± 3.24
same,inflammatory and demyelination scores compared with vehicle,"EAE in SJL/J mice [2]; after 3 and 10 d of treatment, 1×1.33 mg/d from onset, differences not statistically significant",lower after 3 and 10 d of treatment with GM 6001 in all but one group
same,efficacy at low dose when given from disease induction,"EAE in SJL/J mice [3]; 0.13 mg/d once daily, P<0.05 (4 and 1.33 mg/d P<0.005)",still effective
same,efficacy of single daily dose compared with 2×2 mg/d,"EAE in SJL/J mice [3]; 4 mg/d once daily i.p., both treatment schedules",comparable efficacy
same,Change in average cumulative score After treatment,EAE in SJL/J mice [3]; [8],9.9 ± 2.17
same,Change in average cumulative score During treatment,EAE in SJL/J mice [3]; [8],7.0 ± 2.57
same,Change in average cumulative score After treatment,EAE in SJL/J mice [3]; [9],-7.2 ± 2.69
same,Change in average cumulative score During treatment,EAE in SJL/J mice [3]; [9],-6.5 ± 2.08
same,Change in average cumulative score After treatment,EAE in SJL/J mice [3]; [10],18.0 ± 9.82
same,Change in average cumulative score During treatment,EAE in SJL/J mice [3]; [10],7.7 ± 3.09
same,Change in average cumulative score After treatment,EAE in SJL/J mice [3]; [11],23.9 ± 4.96
same,Change in average cumulative score During treatment,EAE in SJL/J mice [3]; [11],11.3 ± 0.94
same,Change in average cumulative score After treatment,EAE in SJL/J mice [3]; [12],12.0 ± 3.83
same,Change in average cumulative score During treatment,EAE in SJL/J mice [3]; [12],3.4 ± 1.77
same,Change in average cumulative score After treatment,EAE in SJL/J mice [3]; [13],22.2 ± 4.61
same,Change in average cumulative score During treatment,EAE in SJL/J mice [3]; [13],2.4 ± 1.16
same,Change in average cumulative score After treatment,EAE in SJL/J mice [3]; [14],-10.6 ± 5.67
same,Change in average cumulative score During treatment,EAE in SJL/J mice [3]; [14],2.0 ± 1.92
same,Change in average cumulative score After treatment,EAE in SJL/J mice [3]; [15],-7.9 ± 4.44
same,Change in average cumulative score During treatment,EAE in SJL/J mice [3]; [15],-0.3 ± 2.03
same,Change in average cumulative score After treatment,EAE in SJL/J mice [3]; [16],-15.0 ± 5.79
same,Change in average cumulative score During treatment,EAE in SJL/J mice [3]; [16],-4.1 ± 1.81
same,Change in average cumulative score After treatment,EAE in SJL/J mice [3]; [17],-7.1 ± 7.86
same,Change in average cumulative score During treatment,EAE in SJL/J mice [3]; [17],-4.3 ± 2.69
same,clinical severity of the disease compared with the vehicle-treated group,"EAE in SJL/J mice [3]; FIG. 1, from disease induction for 20 d, 2×2 mg/d i.p., 10 animals per group",significantly reduced
same,"disease score, treatment of clinical relapse","EAE in SJL/J mice [3]; FIG. 3, 1×4 mg/d for 10 days from onset of clinical relapse, nine animals",statistically significant difference
same,recovery from the drop in body weight associated with the onset of EAE,EAE in SJL/J mice [3]; experiment 2,recovered faster
same,clinical scores after start of treatment,"EAE in SJL/J mice [3]; from onset of clinical signs for 10 d, 2×2 mg/d, P<0.005 vs vehicle up to two days after treatment",decreased the day after the start of treatment
same,animals returned to score 0 (clinically normal) within 12 d following the onset of clinical signs,"EAE in SJL/J mice [3]; from onset of clinical signs for 10 d, 2×2 mg/d, vehicle 3 out of 10",8 out of 10
same,animals that returned to score 0 and had a clinical disease relapse during the follow-up period,"EAE in SJL/J mice [3]; of the 8 recovered animals, 2×2 mg/d from onset for 10 d, vehicle all 3",7 animals
same,reduction of disease severity when treated from disease onset,"EAE in SJL/J mice [3]; once daily 4, 1.33, 0.40, 0.13 mg/d, P<0.05, FIG. 2",only 4 and 1.33 mg/d were significantly effective
same,Blood Brain Barrier Index Spinal Cord,"EAE in SJL/J mice [4]; 3 days of treatment from onset of clinical signs, 1 × 1.33 mg/d i.p.",0.7 ± 0.12
same,Blood Brain Barrier Index Brain,"EAE in SJL/J mice [4]; 3 days of treatment from onset of clinical signs, 1 × 1.33 mg/d i.p., ratio of permeability for Evan's blue",1.1 ± 0.16
same,Blood Brain Barrier Index Spinal Cord,"EAE in SJL/J mice [4]; 10 days of treatment from onset of clinical signs, 1 × 1.33 mg/d i.p.",1.1 ± 0.11
same,blood-brain barrier index,"EAE in SJL/J mice [4]; after 10 d of disease, 1×1.33 mg/d from onset, vehicle significantly elevated, P<0.05",normal
same,duration of detectable levels in the CSF,[5]; [18],at least 4 h
same,time after injection at which detectable levels in the CSF start,[5]; [18],30 min
same,concentration at 8 h,"[5]; mouse, csf, ip, animals with EAE, single i.p. dose of 4 mg, after 8 hours",100 ng/mL
same,concentration at 16 h,"[5]; mouse, csf, ip, animals with EAE, single i.p. dose of 4 mg, after 16 hours",< 60 ng/mL
same,concentration at 3 h,"[5]; mouse, csf, ip, animals with EAE, single i.p. dose of 4 mg",100 to 200 ng/mL
same,concentration at 3 h,"[5]; mouse, csf, ip, animals with EAE, single i.p. dose of 4 mg, converted from ng/ml",250 to 500 nM
same,concentration in the CSF,"[5]; normal noninduced animals, single i.p. dose of 4 mg",never rose above the detection limit
"c1cnc2c(c1)ccc1cccnc12 [phenanthroline, 1,10-phenanthroline, reference compound]",inhibition of gelatinase activity in CSF,"[1]; phenanthroline 2.5 mM, positive control",served as an inhibitory control
